Three compounds from ChEMBL document CHEMBL3608224, “Total synthesis of cordatanine, structural reassignment of drymaritin, and anti-inflammatory activity of synthetic precursors” (Bioorg Med Chem Lett, 2015) can be followed below.

The nature of assay [1]: Antiinflammatory activity in FMLP/CB-induced human neutrophils assessed as inhibition of elastase release. The following applies: Neutrophil. Format: functional, cell-based.
A short description of assay [2]: Antiinflammatory activity in FMLP/CB-induced human neutrophils assessed as inhibition of elastase release relative to control. Format: functional, Neutrophil.
Assay [3] in a line: Antiinflammatory activity in FMLP/CB-induced human neutrophils assessed as inhibition of superoxide anion generation relative to control. Format: functional, Neutrophil.
Assay [4] can be described thus: Antiinflammatory activity in FMLP/CB-induced human neutrophils assessed as inhibition of superoxide anion generation. Format: functional, cell-based. To be noted: Neutrophil.

≈ marks a conversion by molar mass, not a printed value.

For `CCOC(=O)CC(=O)c1nccc2c1[nH]c1ccccc12`, the IC50 in assay [1] and in assay [4] was more than 10 mg/L each time. Besides, the “inhibition (INH)” value in assay [2] is listed as 3.06%; in assay [3] it was 10.48%.
For the compound `CCOC(=O)c1nccc2c1[nH]c1ccccc12`, the IC50 (commonly the midpoint of a concentration-inhibition curve) in assay [1] came out at 6.29 mg/L (≈ 26.2 µM); in assay [4] it was 4.87 mg/L (≈ 20.3 µM). Besides, the “inhibition (INH)” value is 70.75% in assay [2] and 93.92% in assay [3].
On to `COc1cc(=O)n2c3ccccc3c3ccnc1c32`, for which the IC50 in assay [1] and in assay [4] was more than 10 mg/L in each case. Besides, the “inhibition (INH)” value in assay [2] worked out at 8.2%; in assay [3] it was 29.5%.
